Assay results taken from patent US20110040086A1, “Novel Beta-Lactam Antibiotics, Methods for Their Production, and Their Use” (DRITTE PATENTPORTFOLIO BETEILIGUNGSGESELLSCHAFT MB, priority 2007, published 2011).

Key:
[1] = tested on: B. subtilis AWD 166; experiment: agar diffusion test (antimicrobial effect); format: cell-based, Bacillus subtilis
Outline: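 Nutrient agar seeded with B. subtilis AWD 166 to give dense non-confluent colonies; compounds in methanol or distilled water applied to discs at 10, 50, 100 μg. After 20 h at 37 °C, inhibition zone diameter measured in mm.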

[2] = tested on: E. faecalis 945; experiment: agar diffusion test (Test System II, multi-resistant germs); format: cell-based, Enterococcus faecalis; set-up: key: r = resistant (no detectable zone of inhibition)
Outline: (§1)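 Müller-Hinton II plates spread in three directions with McFarland 0.5 bacterial suspension carry three sensi-discs with 10, 50 and 100 μg substance from methanol or water. After 18-20 h at 37 °C, zone-of-inhibition diameters are measured.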

[3] = tested on: S. aureus 33490; experiment: as above; format: cell-based, Staphylococcus aureus; set-up: key: r = resistant (no detectable zone of inhibition)
Outline: as §1

[4] = tested on: S. aureus 34289; experiment: as above; format: cell-based, Staphylococcus aureus; set-up: key: r = resistant (no detectable zone of inhibition)
Outline: as §1

[5] = tested on: S. aureus 36881; experiment: as above; format: cell-based, Staphylococcus aureus; set-up: key: r = resistant (no detectable zone of inhibition)
Outline: as §1

[6] = tested on: S. aureus 39105; experiment: as above; format: cell-based, Staphylococcus aureus; set-up: key: r = resistant (no detectable zone of inhibition)
Outline: as §1

[7] = tested on: S. aureus 520; experiment: as above; format: cell-based, Staphylococcus aureus; set-up: key: r = resistant (no detectable zone of inhibition)
Outline: as §1

[8] = tested on: S. aureus 526; experiment: as above; format: cell-based, Staphylococcus aureus; set-up: key: r = resistant (no detectable zone of inhibition)
Outline: as §1

[9] = tested on: S. aureus North Germany strain; experiment: as above; format: cell-based, Staphylococcus aureus; set-up: key: r = resistant (no detectable zone of inhibition)
Outline: as §1

[10] = tested on: S. aureus 38418; experiment: as above; format: cell-based, Staphylococcus aureus
Outline: as §1

[11] = tested on: S. aureus ATCC 6538; experiment: as above; format: cell-based, Staphylococcus aureus
Outline: as §1

[12] = tested on: S. epidermidis 1068; experiment: as above; format: cell-based, Staphylococcus epidermidis; set-up: key: r = resistant (no detectable zone of inhibition)
Outline: as §1

[13] = tested on: S. epidermidis 1071; experiment: as above; format: cell-based, Staphylococcus epidermidis; set-up: key: r = resistant (no detectable zone of inhibition)
Outline: as §1

[14] = tested on: S. epidermidis 563; experiment: as above; format: cell-based, Staphylococcus epidermidis; set-up: key: r = resistant (no detectable zone of inhibition)
Outline: as §1

[15] = tested on: S. epidermidis 847; experiment: as above; format: cell-based, Staphylococcus epidermidis; set-up: key: r = resistant (no detectable zone of inhibition)
Outline: as §1

[16] = tested on: Staphylococcus aureus ATCC 6538; experiment: mouse infected with Staphylococcus aureus infection model (survival); format: in vivo, BALB/c mice
Outline: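 BALB/c mice, at least 3 per group, made neutropenic with cyclophosphamide i.p. (250 mg/kg day 0, 100 mg/kg day 2). Infected i.p. on day 3 with 10 μl/g of S. aureus suspension at OD550 0.6 (ca. 10^10-10^12 CFU). Antibiotic given i.p. in PBS with 3% DMSO 30 min post-infection, then repeated; survival recorded.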

Q: With NC(=O)C1=C(NC(C(=O)NC2C(=O)N3C(C(=O)O)=C(Cl)CSC23)c2ccccc2)C(=O)C=CC1=O (centres unmarked) [1j, 3-chlorine-7-[2-(2-carbamoyl-3,6-dioxocyclohexa-1,4-dienylamino)-2-phenyl-acetylamino]-8-oxo-1-thia-5-azabicyclo[4.2.0]oct-3-en-4-carboxylic acid] as the compound, how does the “Diameter of zone of inhibition” value ([1]; Quantity n 0.02) read?
A: 30 mm

Q: What about the “Diameter of zone of inhibition” value ([1]; Quantity n 0.1) of the same compound?
A: 38 mm

Q: And the “Diameter of zone of inhibition” value ([1]; Quantity n 0.2)?
A: 40 mm

Q: What about the “Diameter of zone of inhibition” value ([2]; Quantity n 0.02) of the same compound?
A: r

Q: What about the “Diameter of zone of inhibition” value ([2]; Quantity n 0.1) of the same compound?
A: r

Q: What about the “Diameter of zone of inhibition” value ([2]; Quantity n 0.2) of the same compound?
A: r

Q: And the “Diameter of zone of inhibition” value ([3]; Quantity n [μmol] 0.02)?
A: 16 mm

Q: And the “Diameter of zone of inhibition” value ([3]; Quantity n [μmol] 0.1)?
A: 24 mm

Q: And the “Diameter of zone of inhibition” value ([3]; Quantity n [μmol] 0.2)?
A: 26 mm

Q: What about the “Diameter of zone of inhibition” value ([4]; Quantity n [mol] 0.02) of the same compound?
A: r

Q: What about the “Diameter of zone of inhibition” value ([4]; Quantity n [mol] 0.1) of the same compound?
A: r

Q: And the “Diameter of zone of inhibition” value ([4]; Quantity n [mol] 0.2)?
A: r

Q: What about the “Diameter of zone of inhibition” value ([5]; Quantity n 0.02) of the same compound?
A: r

Q: And the “Diameter of zone of inhibition” value ([5]; Quantity n 0.1)?
A: 12 mm

Q: What about the “Diameter of zone of inhibition” value ([5]; Quantity n 0.2) of the same compound?
A: 16 mm

Q: And the “Diameter of zone of inhibition” value ([6]; Quantity n 0.02)?
A: r

Q: What about the “Diameter of zone of inhibition” value ([6]; Quantity n 0.1) of the same compound?
A: 16 mm

Q: What about the “Diameter of zone of inhibition” value ([6]; Quantity n 0.2) of the same compound?
A: 18 mm

Q: And the “Diameter of zone of inhibition” value ([7]; Quantity n [mol] 0.02)?
A: r

Q: And the “Diameter of zone of inhibition” value ([7]; Quantity n [mol] 0.1)?
A: 8 mm

Q: And the “Diameter of zone of inhibition” value ([7]; Quantity n [mol] 0.2)?
A: 12 mm

Q: What about the “Diameter of zone of inhibition” value ([8]; Quantity n 0.02) of the same compound?
A: r

Q: What about the “Diameter of zone of inhibition” value ([8]; Quantity n 0.1) of the same compound?
A: r

Q: And the “Diameter of zone of inhibition” value ([8]; Quantity n 0.2)?
A: r

Q: What about the “Diameter of zone of inhibition” value ([9]; Quantity n 0.02) of the same compound?
A: r

Q: And the “Diameter of zone of inhibition” value ([9]; Quantity n 0.1)?
A: 12 mm

Q: And the “Diameter of zone of inhibition” value ([9]; Quantity n 0.2)?
A: 16 mm

Q: What about the “Diameter of zone of inhibition” value ([10]; Quantity n [mol] 0.02) of the same compound?
A: 22 mm

Q: And the “Diameter of zone of inhibition” value ([10]; Quantity n [mol] 0.1)?
A: 30 mm

Q: What about the “Diameter of zone of inhibition” value ([10]; Quantity n [mol] 0.2) of the same compound?
A: 34 mm

Q: What about the “Diameter of zone of inhibition” value ([11]; Quantity n 0.02) of the same compound?
A: 28 mm

Q: And the “Diameter of zone of inhibition” value ([11]; Quantity n 0.1)?
A: 34 mm

Q: And the “Diameter of zone of inhibition” value ([11]; Quantity n 0.2)?
A: 38 mm

Q: What about the “Diameter of zone of inhibition” value ([12]; Quantity n 0.02) of the same compound?
A: 16 mm

Q: What about the “Diameter of zone of inhibition” value ([12]; Quantity n 0.1) of the same compound?
A: 22 mm

Q: What about the “Diameter of zone of inhibition” value ([12]; Quantity n 0.2) of the same compound?
A: 26 mm

Q: What about the “Diameter of zone of inhibition” value ([13]; Quantity n 0.02) of the same compound?
A: 18 mm

Q: And the “Diameter of zone of inhibition” value ([13]; Quantity n 0.1)?
A: 26 mm

Q: What about the “Diameter of zone of inhibition” value ([13]; Quantity n 0.2) of the same compound?
A: 28 mm

Q: What about the “Diameter of zone of inhibition” value ([14]; Quantity n 0.02) of the same compound?
A: 20 mm

Q: And the “Diameter of zone of inhibition” value ([14]; Quantity n 0.1)?
A: 26 mm

Q: And the “Diameter of zone of inhibition” value ([14]; Quantity n 0.2)?
A: 32 mm

Q: And the “Diameter of zone of inhibition” value ([15]; Quantity n [mol] 0.02)?
A: 10 mm

Q: What about the “Diameter of zone of inhibition” value ([15]; Quantity n [mol] 0.1) of the same compound?
A: 20 mm

Q: What about the “Diameter of zone of inhibition” value ([15]; Quantity n [mol] 0.2) of the same compound?
A: 24 mm

Q: And the Survival/tested mice n/n ([16]; 2 × 0.5 mg (25 mg/kg) i.p.)?
A: 3/3

Q: Which results are given for CCOC(=O)C1=C(NC(C(=O)NC2C(=O)N3C(C(=O)O)=C(Cl)CSC23)c2ccccc2)C(=O)C=CC1=O (centres unmarked) [1l]?
A: Diameter of zone of inhibition ([1]; Quantity n 0.019): 30 mm; Diameter of zone of inhibition ([1]; Quantity n 0.09): 34 mm; Diameter of zone of inhibition ([1]; Quantity n 0.19): 38 mm; Diameter of zone of inhibition ([2]; Quantity n 0.019): r; Diameter of zone of inhibition ([2]; Quantity n 0.09): r; Diameter of zone of inhibition ([2]; Quantity n 0.19): r; Diameter of zone of inhibition ([3]; Quantity n [μmol] 0.019): 14 mm; Diameter of zone of inhibition ([3]; Quantity n [μmol] 0.09): 20 mm; Diameter of zone of inhibition ([3]; Quantity n [μmol] 0.19): 24 mm; Diameter of zone of inhibition ([4]; Quantity n [mol] 0.019): r; Diameter of zone of inhibition ([4]; Quantity n [mol] 0.09): r; Diameter of zone of inhibition ([4]; Quantity n [mol] 0.19): r; Diameter of zone of inhibition ([5]; Quantity n 0.019): r; Diameter of zone of inhibition ([5]; Quantity n 0.09): 8 mm; Diameter of zone of inhibition ([5]; Quantity n 0.19): 18 mm; Diameter of zone of inhibition ([6]; Quantity n 0.019): r; Diameter of zone of inhibition ([6]; Quantity n 0.09): 18 mm; Diameter of zone of inhibition ([6]; Quantity n 0.19): 22 mm; Diameter of zone of inhibition ([7]; Quantity n [mol] 0.019): r; Diameter of zone of inhibition ([7]; Quantity n [mol] 0.09): r; Diameter of zone of inhibition ([7]; Quantity n [mol] 0.19): 10 mm; Diameter of zone of inhibition ([8]; Quantity n 0.019): r; Diameter of zone of inhibition ([8]; Quantity n 0.09): r; Diameter of zone of inhibition ([8]; Quantity n 0.19): r; Diameter of zone of inhibition ([9]; Quantity n 0.019): r; Diameter of zone of inhibition ([9]; Quantity n 0.09): 10 mm; Diameter of zone of inhibition ([9]; Quantity n 0.19): 16 mm; Diameter of zone of inhibition ([10]; Quantity n [mol] 0.019): 18 mm; Diameter of zone of inhibition ([10]; Quantity n [mol] 0.09): 28 mm; Diameter of zone of inhibition ([10]; Quantity n [mol] 0.19): 30 mm; Diameter of zone of inhibition ([11]; Quantity n 0.019): 24 mm; Diameter of zone of inhibition ([11]; Quantity n 0.09): 30 mm; Diameter of zone of inhibition ([11]; Quantity n 0.19): 34 mm; Diameter of zone of inhibition ([12]; Quantity n 0.019): 14 mm; Diameter of zone of inhibition ([12]; Quantity n 0.09): 20 mm; Diameter of zone of inhibition ([12]; Quantity n 0.19): 22 mm; Diameter of zone of inhibition ([13]; Quantity n 0.019): 16 mm; Diameter of zone of inhibition ([13]; Quantity n 0.09): 24 mm; Diameter of zone of inhibition ([13]; Quantity n 0.19): 28 mm; Diameter of zone of inhibition ([14]; Quantity n 0.019): 16 mm; Diameter of zone of inhibition ([14]; Quantity n 0.09): 28 mm; Diameter of zone of inhibition ([14]; Quantity n 0.19): 30 mm; Diameter of zone of inhibition ([15]; Quantity n [mol] 0.019): r; Diameter of zone of inhibition ([15]; Quantity n [mol] 0.09): 20 mm; Diameter of zone of inhibition ([15]; Quantity n [mol] 0.19): 22 mm; Survival/tested mice n/n ([16]; 2 × 1.0 mg (50 mg/kg) i.p.): 3/3
